Test results reported in patent US9302999B2, “Substituted triazoles as herbicides” (E. I. DU PONT DE NEMOURS AND COMPANY, priority 2012, dated 2016).

What was measured:
Type in all cases: in vivo
[1] = tested on: pigweed (Amaranthus retroflexus); experiment: Test D pre-/postemergence: pigweed
From the text: (§1) Seeds of plant species selected from bluegrass (annual bluegrass, Poa annua), blackgrass (Alopecurus myosuroides), canarygrass (Phalaris minor), chickweed (common chickweed, Stellaria media), galium (catchweed bedstraw, Galium aparine), bromegrass, downy (downy bromegrass, Bromus tectorum), field poppy (Papaver rhoeas), field violet (Viola arvensis), foxtail, green (green foxtail, Setaria viridis), deadnettle (henbit deadnettle, Lamium amplexicaule), ryegrass, Italian (Italian ryegrass, Lolium multiflorum), kochia (Kochia scoparia), lambsquarters (Chenopodium album), oilseed rape (Brassica napus), pigweed (Amaranthus retroflexus), Russian thistle (Salsola iberica), chamomile (scentless chamomile, Matricaria inodora), speedwell (bird's-eye speedwell, Veronica persica), barley, spring (spring barley, Hordeum vulgare), wheat, spring (spring wheat, Triticum aestivum), buckwheat, wild (wild buckwheat, Polygonum convolvulus), mustard, wild (wild mustard, Sinapis arvensis), oat, wild (wild oat, Avena fatua), radish, wild (wild radish, Raphanus raphanistrum), windgrass (Apera spica-venti), barley, winter (winter barley, Hordeum vulgare), and wheat, winter (winter wheat, Triticum aestivum) were planted into a silt loam soil and treated preemergence with test chemicals formulated in a non-phytotoxic solvent mixture which included a surfactant. At the same time, these same crop and weed species were planted in pots containing the planting medium comprising spaghnum peat moss, vermiculite, wetting agent and starter nutrients and treated with postemergence applications of the test chemicals formulated in the same manner. Plants ranged in height from 2 to 18 cm (1- to 4-leaf stage).
(§2) Treated plants and controls were maintained in a controlled growth environment for 14 to 21 days after which time all species were compared to controls and visually evaluated. Plant response ratings, summarized in Table D, are based on a scale of 0 to 100 where 0 is no effect and 100 is complete control. A dash (-) response means no test result.

[2] = tested on: ducksalad (Heteranthera limosa); experiment: Test C flooded paddy test: ducksalad; conditions: Heteranthera limosa, scale 0 to 100 (0 no effect, 100 complete control), read-out: Plant response rating, Ducksalad
Procedure, shortened: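 Plants at 2-leaf stage in pots flooded 3 cm above soil; compounds applied directly into the paddy water, depth maintained. Visual rating against controls after 13–15 days in greenhouse, scale 0 (no effect) to 100 (complete control).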

[3] = tested on: oilseed rape (Brassica napus); experiment: Test D pre-/postemergence: oilseed rape
From the text: as §1, §2

[4] = tested on: velvetleaf (Abutilon theophrasti); experiment: Test C pre-/postemergence: velvetleaf; conditions: Postemergence
From the text: Seeds of plant species selected from blackgrass (Alopecurus myosuroides), bromegrass, downy (downy bromegrass, Bromus tectorum), foxtail, green (green foxtail, Setaria viridis), ryegrass, Italian (Italian ryegrass, Lolium multiflorum), winter wheat (Triticum aestivum), wild oat (Avena fatua), galium (catchweed bedstraw, Galium aparine), bermudagrass (Cynodon dactylon), surinam grass (Brachiaria decumbens), cocklebur (common cocklebur, Xanthium strumarium), corn (Zea mays), large crabgrass (Digitaria sanguinalis), woolly cupgrass (Eriochloa villosa), foxtail, giant (giant foxtail, Setaria faberii), goosegrass (Eleusine indica), johnsongrass (Sorghum halepense), kochia (Kochia scoparia), lambsquarters (Chenopodium album), morningglory (Ipomoea coccinea), nightshade (eastern black nightshade, Solanum ptycanthum), nutsedge, yellow (yellow nutsedge, Cyperus esculentus), pigweed (Amaranthus retroflexus), ragweed (common ragweed, Ambrosia elation), soybean (Glycine max), common (oilseed) sunflower (Helianthus annuus), Russian thistle (Salsola kali) and velvetleaf (Abutilon theophrasti) were planted into a blend of loam soil and sand and treated preemergence with test chemicals formulated in a non-phytotoxic solvent mixture which included a surfactant.
At the same time, plants selected from these crop and weed species and also barley (winter barley, Hordeum vulgare), canarygrass (Phalaris minor), chickweed (common chickweed, Stellaria media) windgrass (Apera spica-venti) and deadnettle (henbit deadnettle, Lamium amplexicaule) were planted in pots containing Redi-Earth® planting medium (Scotts Company, 14111 Scottslawn Road, Marysville, Ohio 43041) comprising spaghnum peat moss, vermiculite, wetting agent and starter nutrients and treated with postemergence applications of test chemicals formulated in the same manner. Plants ranged in height from 2 to 18 cm (1- to 4-leaf stage) for postemergence treatments.
Treated plants and controls were maintained in a greenhouse for 13 to 15 days, after which time all species were compared to controls and visually evaluated. Plant response ratings, summarized in Table C, are based on a scale of 0 to 100 where 0 is no effect and 100 is complete control. A dash (-) response means no test result.

[5] = tested on: galium (catchweed bedstraw, Galium aparine); experiment: Test C pre-/postemergence: galium
Procedure, shortened: (§3)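 Preemergence on seeds in loam/sand, postemergence on 2–18 cm (1–4-leaf) plants in peat-based medium; compounds in non-phytotoxic solvent with surfactant. After 13–15 days in greenhouse, visual rating versus controls, 0 (no effect) to 100 (complete control).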

[6] = tested on: cocklebur (common cocklebur, Xanthium strumarium); experiment: Test C pre-/postemergence: cocklebur; conditions: Postemergence
Procedure, shortened: as §3

[7] = Postemergence, 31 g ai/ha, scale 0 to 100 (0 no effect, 100 complete control)
[8] = Postemergence, 62 g ai/ha, scale 0 to 100 (0 no effect, 100 complete control)
[9] = Postemergence, 125 g ai/ha, scale 0 to 100, 0 no effect, 100 complete control
[10] = Postemergence, 250 g ai/ha, scale 0 to 100 (0 no effect, 100 complete control)
[11] = Postemergence, 16 g ai/ha, scale 0 to 100
[12] = Preemergence, 16 g ai/ha, scale 0 to 100 (0 no effect, 100 complete control)
[13] = Preemergence, 31 g ai/ha, scale 0 to 100 (0 no effect, 100 complete control)
[14] = Preemergence, 62 g ai/ha, scale 0 to 100
[15] = Preemergence, 125 g ai/ha, scale 0 to 100
[16] = Preemergence, 250 g ai/ha, scale 0 to 100
[17] = 31 g ai/ha, scale 0 to 100 (0 no effect, 100 complete control)
[18] = 62 g ai/ha, scale 0 to 100 (0 no effect, 100 complete control)
[19] = 125 g ai/ha, scale 0 to 100, 0 no effect, 100 complete control

For `Cc1nn(-c2ccc(F)cc2)nc1Cc1ccnc(C(F)(F)F)c1` [Compound 16, 4-[[2-(4-fluorophenyl)-5-methyl-2H-1,2,3-triazol-4-yl]methyl]-2-(trifluoromethyl)pyridine], the “Plant response rating: Pigweed” value [1, 7] was 70, the “Plant response rating: Pigweed” value [1, 8] was 80 and the “Plant response rating: Pigweed” value [1, 9] was 90. The “Plant response rating: Pigweed” value [1, 10] was 100, the “Plant response rating, Pigweed” value [1, 11] was 50 and the “Plant response rating, Pigweed” value [1, 12] was 25. For the same compound, the “Plant response rating, Pigweed” value [1, 13] was 80, the “Plant response rating, Pigweed” value [1, 14] was 80 and the “Plant response rating, Pigweed” value [1, 15] was 90. For the same compound, the “Plant response rating, Pigweed” value [1, 16] was 100, the pest or weed control at 62 g/ha ([2]; Flood (flooded paddy test), 62 g ai/ha, visual rating after 13 to 15 days) was 85% and the pest or weed control at 125 g/ha ([2]; Flood (flooded paddy test), 125 g ai/ha, visual rating after 13 to 15 days) was 95%. For the same compound, the pest or weed control at 250 g/ha ([2]; Flood (flooded paddy test), 250 g ai/ha, visual rating after 13 to 15 days) was 100%, the pest or weed control at 31 g/ha ([2]; Flood, 31 g ai/ha) was 70% and the “Plant response rating: Oilseed Rape” value [3, 7] was 70. The “Plant response rating: Oilseed Rape” value [3, 8] was 95, the “Plant response rating: Oilseed Rape” value [3, 9] was 100 and the “Plant response rating: Oilseed Rape” value [3, 10] was 100. For the same compound, the “Plant response rating, Oilseed Rape” value [3, 11] was 40, the “Plant response rating, Oilseed Rape” value [3, 12] was 0 and the “Plant response rating, Oilseed Rape” value [3, 13] was 0. The “Plant response rating, Oilseed Rape” value [3, 14] was 50, the “Plant response rating, Oilseed Rape” value [3, 15] was 50 and the “Plant response rating, Oilseed Rape” value [3, 16] was 100. The “Plant response rating, Velvetleaf” value [4, 17] was 10, the “Plant response rating, Velvetleaf” value [4, 18] was 65 and the “Plant response rating, Velvetleaf” value [4, 19] was 65. For the same compound, the “Plant response rating, Velvetleaf” value ([4]; 250 g ai/ha, scale 0 to 100) was 85, the “Plant response rating, Galium” value [5, 7] was 60 and the “Plant response rating, Galium” value [5, 8] was 65. For the same compound, the “Plant response rating, Galium” value [5, 9] was 80, the “Plant response rating, Galium” value ([5]; Postemergence, 250 g ai/ha, scale 0 to 100) was 90 and the “Plant response rating, Galium” value ([5]; Preemergence, 31 g ai/ha, scale of 0 to 100, 0 is no effect, 100 is complete control) was 100. For the same compound, the “Plant response rating, Galium” value ([5]; Preemergence, 62 g ai/ha, scale of 0 to 100, 0 is no effect, 100 is complete control) was 100, the “Plant response rating, Galium” value ([5]; Preemergence, 125 g ai/ha, scale 0 to 100, 0 no effect, 100 complete control) was 100 and the “Plant response rating, Galium” value ([5]; Preemergence, 250 g ai/ha, scale 0 to 100, 0 no effect, 100 complete control) was 100. For the same compound, the “Plant response rating, Cocklebur” value [6, 17] was 35, the “Plant response rating, Cocklebur” value [6, 18] was 45 and the “Plant response rating, Cocklebur” value [6, 19] was 45. For the same compound, the “Plant response rating, Cocklebur” value ([6]; 250 g ai/ha, scale 0 to 100) was 45.
